For data set [1], the system named is H. pylori (ATCC 43504). The text has this:
(§1) H. pylori used in this study were either the reference strain obtained from the American Type Culture Collection (ATCC 43504) or clinical strains received frozen from our collaborator Josette Raymond from Hospital Cochin, Paris. Strains were obtained from patients who underwent a gastroendoscopy performed for various gastro-intestinal disorders according to the recommendations of Haute Autorité de Santé (HAS). During the endoscopy, biopsy samples were taken from antrum and corpus. Samples were then crushed, and the material was used for bacterial culture and molecular methods. An antibiogram was performed and strains were then frozen at -80 °C in a broth with 10% glycerol. Bacteria were cultured as previously described. Briefly, H. pylori (ATCC 43504) was cultured in brain heart infusion (BHI) and incubated at 37 °C for 16 h in microaerophilic condition in BD GasPak EZ using BD GasPak EZ CampyPak container system sachets (BD Biosciences, Le Pont-de-Claix, France). For clinical strains, a sample from the frozen bacteria was streaked on Blood Agar (Base) (Sigma-Aldrich, Illkirch-Graffenstaden, France) supplemented with 5% horse defibrinated blood (Fisher Scientific, Les Ulis, France) and 2% isovitale-X (Fisher Scientific, Illkirch-Graffenstaden, France). The petri dishes were then incubated at 37 °C for 4–7 days in microaerophilic condition. Then, a colony is transferred to 3 mL Mueller Hinton (MH) broth supplemented with 10% fetal bovine serum (FBS) and 2% isovitale-X. The cultures were then incubated for 4–7 days until the bacteria grow before further experiments.
(§2) Briefly, after the growth of H. pylori in liquid culture the optical density (OD) of the bacterial suspensions were read at 600 nm and adjusted to one. Stock solutions of the peptides at 1 mM were prepared in sterile water. Bacteria were diluted in medium to reach bacterial density around 10^5 bacteria/mL. One-hundred microliters per well of bacterial suspension were then added into sterile polypropylene 96-well microplates (Greiner BioOne, Paris, France) and exposed to increasing concentrations of peptides (from zero to 100 µM, 1:2 serial dilution). […] Plates were incubated at 37 °C for 24 h for H. pylori (ATCC 43504) and for 4–7 days for the clinical strains. H. pylori was tested in microaerophilic conditions generated using micro-anaerobic BD GasPak system. At the end of the incubation, OD600nm was measured using microplate reader (Synergy Mx, Biotek, Colmar, France). The MIC was defined as the lowest concentration of drug that inhibited visible growth of the organism. Experiments were conducted in independent triplicate (n = 3).

The test system of data set [2] is clinical strains of H. pylori. The following applies: for MIC: MH + 10% FBS + 2% isovitale-X.
Excerpt: as §1, §2

The subject of data set [3] is H. pylori (ATCC 43504). Briefly: MIC after digestion by pepsin (resistance to pepsin). How it is done:
as §2
It is also rich with mucus to protect it from the aggressive acidity. For this reason, the impact of mucins and pepsin on the activity of the peptides was investigated. The impact of the gastric mucins on peptide activity was evaluated using a combination of commercial porcine stomach mucins MUC2 and MUC3 (Sigma–Aldrich) at a final concentration of 1 mg/mL sterilized using 0.2 µm filter. This concentration was used based on the estimated concentration of mucins present in the mucus in vivo [27]. The effect of mucins on peptides activity was evaluated by MIC and by time killing assay as explained below. The resistance of the peptides to pepsin was tested as previously described with some changes. […] This concentration was used since it corresponds the pepsin concentration in the stomach (0.5–1 mg/mL).

The record followed here is article PMC6843786, “Temporin-SHa and Its Analogs as Potential Candidates for the Treatment of Helicobacter pylori” (Biomolecules, 2019).

SMILES strings stand for the structures. “Also recorded” adds a separate entry of the source. Read-outs that look alike come from different tables or passages of the source. Non-standard residues stand in square brackets, D forms with d. Residues, ends and D or L forms follow the SMILES beside them.

As to `CC[C@H](C)[C@H](NC(=O)CNC(=O)[C@H](CO)NC(=O)[C@H](CC(C)C)NC(=O)[C@@H](N)Cc1ccccc1)C(=O)N[C@H](C(=O)NCC(=O)N[C@@H](CCSC)C(=O)N[C@@H](CC(C)C)C(=O)N[C@H](C)C(=O)N[C@@H](CCCCN)C(=O)N[C@@H](CC(C)C)C(=O)N[C@@H](Cc1ccccc1)C(N)=O)C(C)C` [NST1, H-Phe^1-Leu^2-Ser^3-Gly^4-Ile^5-Val^6-Gly^7-Met^8-Leu^9-D-Ala^10-Lys^11-Leu^12-Phe^13-NH2] (H-FLSGIVGML[dA]KLF-NH2), in data set [1] (MH medium, 24 h, microaerophilic), the “MIC on H. pylori (ATCC 43504)” value came to 1.5 µM. For the same molecule, the “MIC on H. pylori (ATCC 43504) in MH supplemented with 10% FBS” value in data set [1] (MH supplemented with 10% FBS) is listed as 6.25 µM. The “MIC values against resistant clinical strains (span over all strains)” value in data set [2] (all resistant clinical strains, MH + 10% FBS) lay within 6.25 to 12.5 µM. Further, the MIC in data set [2] (clinical strain BM18, resistance Clari/Metro) turned out to be 12.5 µM; in data set [2] (clinical strain EM68, resistance Clari/Metro) it was 12.5 µM; in data set [2] (clinical strain LN18, resistance Clari), 6.25 µM; in data set [2] (clinical strain MF76, resistance Clari/Metro), 12.5 µM; in data set [2] (clinical strain MP78, resistance Clari/Metro), 12.5 µM; in data set [2] (clinical strain MS67, resistance Clari/Metro), 12.5 µM. For the same molecule, the MIC in data set [2] (clinical strain NM44, resistance Clari/Metro) is listed as 6.25 µM. In data set [3] (4 h at 37 °C with pepsin 1 mg/mL in HCl pH 2), the “MIC after Digestion by Pepsin” value came to 25 µM. Further, the “resistance to pepsin (in words)” value in data set [3] (4 h at 37 °C with pepsin 1 mg/mL, HCl pH 2) is given as “partial resistance towards pepsin; also recorded: partial resistance to the digestion by pepsin”.

The MIC is the lowest concentration that inhibits growth of the organism.
